Experimental findings from PubChem BioAssay (NCI) are described below.

Molecules are shown by their SMILES.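 Results reflect a 48-hour exposure of cells in 96-well plates to compound at five concentrations. At the TGI there is no net growth.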

Test systems include SNB-78 CNS; DLD-1 colon; M19-MEL melanoma; KM20L2 colon; DMS 273 small cell lung; LXFL 529 NSCLC; XF 498 CNS; HOP-18 NSCLC; RXF-631 renal.
Holding throughout (test): NCI tumour cell line growth inhibition, 48 h

For `O=C(Nc1ccccc1-c1nc2ccccc2[nH]c1=O)c1ccccc1`, the TGI was 69.2 µM with SNB-78 CNS; 68.2 µM with DLD-1 colon; 91.2 µM in the assay on M19-MEL melanoma; greater than 100 µM with KM20L2 colon; 52.6 µM in the assay with DMS 273 small cell lung; 69.2 µM with LXFL 529 NSCLC. The TGI with XF 498 CNS turned out to be 49.9 µM.
As for `Cc1cc(N(CCC#N)CCC#N)ccc1/C=C(\NC(=O)/C=C/c1ccccc1)C(N)=O`, the TGI with SNB-78 CNS, in the assay with DLD-1 colon, in the assay on M19-MEL melanoma, in the assay with KM20L2 colon, in the assay on DMS 273 small cell lung and in the assay with LXFL 529 NSCLC was greater than 100 µM throughout. The molecule also had a TGI in the assay with XF 498 CNS greater than 100 µM.
Turning to `CCCCCCCCCCCC(=O)OCC(C[As](=O)(O)O)OC(=O)CCCCCCCCCCC` (centres undefined), the TGI in the assay with SNB-78 CNS was determined as 7.69 µM; in the assay on DLD-1 colon, 31.3 µM; with HOP-18 NSCLC it was 14.1 µM; in the assay on M19-MEL melanoma, 15.8 µM; with KM20L2 colon it was 20 µM; in the assay with DMS 273 small cell lung, 10.1 µM. The TGI in the assay with LXFL 529 NSCLC worked out at 5.21 µM; with XF 498 CNS, 7.28 µM.
With `Cn1cc(C2(C)CC(C)(C)c3c2n(C)c2ccccc32)c2ccccc21` (centres undefined), the TGI in the assay on SNB-78 CNS, with DLD-1 colon, with M19-MEL melanoma, with KM20L2 colon, in the assay on DMS 273 small cell lung and with LXFL 529 NSCLC was greater than 100 µM throughout. For the same molecule, the TGI in the assay with XF 498 CNS was greater than 100 µM.
As for `CC1=CCC(O)C=CC(C)C(O)C(C)C=C(C)C(=O)c2c(O)c(C)cc3c2C(=O)C(N)=C(NC(=O)/C=C\C=C/C=CC(C)C(O)CC1=O)C3=O` (centres undefined), the TGI with SNB-78 CNS, in the assay on DLD-1 colon, with M19-MEL melanoma, with KM20L2 colon, in the assay on DMS 273 small cell lung and with LXFL 529 NSCLC was greater than 100 µM throughout. In the assay on XF 498 CNS, this molecule yielded a TGI greater than 100 µM.
Take `CCN(CC)C1CC(O[C@H]2C[C@](O)(C(=O)CO)Cc3c(O)c4c(c(O)c32)C(=O)c2c(OC)cccc2C4=O)OC(C)C1O` (some centres undefined): the TGI was 0.785 µM with SNB-78 CNS; 11.9 µM with RXF-631 renal; 0.26 µM in the assay on DLD-1 colon; 0.167 µM with M19-MEL melanoma; 0.416 µM in the assay with KM20L2 colon; 0.161 µM in the assay on DMS 273 small cell lung. Further, the TGI with LXFL 529 NSCLC came to 1.1 µM; with XF 498 CNS, 0.223 µM.
`COc1cc2cc3c4cc(OC)c(OC)cc4cc[n+]3c(C)c2cc1OC` (tested in a mixture with another compound): the TGI in the assay with SNB-78 CNS is greater than 92.9 µM; in the assay with DLD-1 colon, greater than 100 µM; with HOP-18 NSCLC it was greater than 100 µM; in the assay with M19-MEL melanoma, greater than 100 µM; in the assay on KM20L2 colon it was greater than 100 µM; with DMS 273 small cell lung it was greater than 100 µM. Moreover, the TGI in the assay on LXFL 529 NSCLC and in the assay with XF 498 CNS was greater than 100 µM in each case.
Turning to `O=C(Nc1cc(Cl)c(Cl)cc1Cl)C(=O)C1C(=O)NC(=S)NC1=O`, the TGI with SNB-78 CNS, with RXF-631 renal, with DLD-1 colon, in the assay on HOP-18 NSCLC, in the assay on M19-MEL melanoma and in the assay with KM20L2 colon was greater than 100 µM throughout. Besides, the TGI with DMS 273 small cell lung, in the assay on LXFL 529 NSCLC and in the assay with XF 498 CNS was greater than 100 µM throughout.
Consider `O=c1cc(-c2ccc(Oc3ccccc3)cc2)[nH]c2cc3c(cc12)OCO3`, for which the TGI in the assay on DLD-1 colon, in the assay on M19-MEL melanoma, with KM20L2 colon, in the assay on DMS 273 small cell lung, in the assay with LXFL 529 NSCLC and in the assay on XF 498 CNS was greater than 100 µM throughout.
As to `COC(=O)CC1N=C(NC#N)N(CCc2c[nH]c3ccccc23)C1=O` (centres undefined), the TGI in the assay with SNB-78 CNS, in the assay with DLD-1 colon, in the assay on M19-MEL melanoma, with KM20L2 colon, in the assay on DMS 273 small cell lung and in the assay with LXFL 529 NSCLC was greater than 100 µM in each case. In the assay on XF 498 CNS, the TGI was greater than 100 µM.
Regarding `CC(=O)O[C@H]1C(=O)[C@@]2(C)C(C(OC(=O)c3ccccc3)[C@]3(O)CC(OC(=O)C(O)C(NC(=O)c4ccc(C(F)(F)F)cc4)c4ccccc4)C(C)=C1C3(C)C)[C@]1(OC(C)=O)CO[C@@H]1C[C@@H]2O` (some centres undefined), the TGI in the assay with SNB-78 CNS stood at 10.1 µM; in the assay on DLD-1 colon it was 28.9 µM; in the assay on HOP-18 NSCLC, 31 µM; in the assay on M19-MEL melanoma it was 0.271 µM; with KM20L2 colon, 0.174 µM; in the assay on DMS 273 small cell lung, 0.53 µM. The TGI with XF 498 CNS was 3.09 µM.
Turning to `CCOC(=O)CC(C)C1(C(=O)OCC)CCCCC1=O` (centres undefined), the TGI in the assay on SNB-78 CNS, in the assay on RXF-631 renal, in the assay with DLD-1 colon, in the assay on HOP-18 NSCLC, in the assay on M19-MEL melanoma and in the assay on KM20L2 colon was greater than 100 µM in each case. Further, the TGI in the assay on DMS 273 small cell lung was 32.5 µM; in the assay on LXFL 529 NSCLC, greater than 100 µM; in the assay with XF 498 CNS, greater than 100 µM.
For `O=Cc1ccccc1COC(=O)c1cc(C(=O)OCc2ccccc2C=O)c(C(=O)OCc2ccccc2C=O)cc1C(=O)OCc1ccccc1C=O`, the TGI in the assay on SNB-78 CNS, in the assay on DLD-1 colon, in the assay on HOP-18 NSCLC, with M19-MEL melanoma, in the assay with KM20L2 colon and in the assay with DMS 273 small cell lung was greater than 100 µM in each case. Moreover, the TGI in the assay on LXFL 529 NSCLC and in the assay on XF 498 CNS was greater than 100 µM in each case.
With `CCOC(=O)CCC(=O)C1c2cccc(O)c2C(=O)c2c(O)cc(C)cc21` (centres undefined), the TGI with SNB-78 CNS amounted to 1.9 µM; with RXF-631 renal it was 1.65 µM; in the assay on DLD-1 colon it was 3.58 µM; in the assay on HOP-18 NSCLC it was 1.33 µM; in the assay with M19-MEL melanoma, 1.31 µM; in the assay with KM20L2 colon, 3.51 µM. Also, the values for the TGI in the assay with DMS 273 small cell lung, in the assay on LXFL 529 NSCLC and with XF 498 CNS were 2.13 µM, 1.75 µM and 0.52 µM, respectively.
`O=C1C2C3C=C4c5ccccc5N(c5ccccc5)C4(C2C(=O)N1c1ccc([N+](=O)[O-])cc1)[C@H]1C(=O)N(c2ccc([N+](=O)[O-])cc2)C(=O)[C@@H]31` (some centres undefined): the TGI with SNB-78 CNS, in the assay with DLD-1 colon, in the assay with HOP-18 NSCLC, in the assay with M19-MEL melanoma, in the assay on KM20L2 colon and with DMS 273 small cell lung was greater than 100 µM in each case.
`Cn1c(O)c(C(=O)NC2CCCCC2)c(=O)n(C)c1=S`: the TGI in the assay with RXF-631 renal was found to be 20.1 µM; in the assay with DLD-1 colon it was 24 µM; in the assay with HOP-18 NSCLC, 9.63 µM; in the assay on KM20L2 colon, 23.4 µM; with LXFL 529 NSCLC, 16 µM.
In the case of `CCCCCCCCCCCCCCCC(=O)OCC(C[As](=O)(O)O)OC(=O)CCCCCCCCCCCCCCC` (centres undefined), the TGI in the assay on SNB-78 CNS is 80.8 µM; with RXF-631 renal, greater than 100 µM; in the assay on DLD-1 colon, greater than 100 µM; with HOP-18 NSCLC, greater than 100 µM; with M19-MEL melanoma, greater than 100 µM; with KM20L2 colon, greater than 100 µM. For the same molecule, the results for the TGI in the assay with DMS 273 small cell lung, in the assay with LXFL 529 NSCLC and with XF 498 CNS were greater than 100 µM, greater than 100 µM and 70.9 µM, respectively.
`COC(=O)C(Cc1nc2ccccc2[nH]c1=O)C(NO)C(=O)Nc1c(Cl)cc([N+](=O)[O-])cc1Cl` (centres undefined): the TGI in the assay with SNB-78 CNS and in the assay on DLD-1 colon was greater than 100 µM each time.
`O=C1c2ccsc2C(=O)c2sc(CO)cc21`: the TGI was found to be 0.978 µM in the assay on SNB-78 CNS; 0.326 µM in the assay on DLD-1 colon; 0.113 µM in the assay with HOP-18 NSCLC; 0.352 µM in the assay with KM20L2 colon; 0.115 µM with DMS 273 small cell lung; 0.304 µM with LXFL 529 NSCLC. The same molecule showed a TGI with XF 498 CNS of 1.14 µM.
Regarding `O=C(CC(=O)n1nc(-c2ccccc2)c(N=Nc2ccc(Cl)cc2)c1-c1ccccc1)Nc1ccc(Cl)cc1`, the TGI in the assay with SNB-78 CNS was greater than 100 µM; in the assay on RXF-631 renal it was greater than 100 µM; with DLD-1 colon it was 44.7 µM; in the assay with HOP-18 NSCLC, greater than 100 µM; in the assay with M19-MEL melanoma, greater than 76.2 µM; in the assay on KM20L2 colon, greater than 100 µM. Also, the TGI in the assay with DMS 273 small cell lung and with LXFL 529 NSCLC was greater than 100 µM throughout.
